Test results reported in US12121524B2, “DNA-PK inhibitors” (VERTEX PHARMACEUTICALS INCORPORATED, priority 2018, dated 2024).
“And” between values parts separate entries of the source, which are not always exact repeats. Equal entries are not always repeated.

Experiments:
[1] = test system: mPB CD34+ cells; assay: Gene editing rates in CD34+ cells, Example 19 (lower sgRNA and ssODN); assay type: cell-based, human; settings: for % HDR: NAV1.7, 48 h
Experimental: Primary human mobilized peripheral blood (mPB) CD34^+ hematopoietic stem and progenitor cells (HSPCs) were purchased from Hemacare or AllCells. Cells were thawed, washed and resuspended in complete medium comprised of serum free medium CellGro SCGM (CellGenix) and supplemented with cytokine mix (300 ng/mL SCF, 300 ng/mL Flt3 L, 100 ng/mL TPO, 60 ng/ml IL-3) at a density of 1-3×10^5 cells per mL and incubated at 37° C./5% CO2 incubator for 48 hours prior to electroporation.
(§1) CD34^+ cells were electroporated two days post thaw. The following conditions were used for electroporation: 2.0×E6 cells, 15 μg Cas9 protein (Feldan), 15 μg sgRNA, 1 μM of ssODN in 100 μl of P3 electroporation buffer using program CA-137. Electroporated cells were transferred by equally dividing them into eight wells of a 24-well plate, each well containing various concentrations of DNA-PK inhibitors. Cells were incubated at 37° C. in a 5% CO2 incubator for two days and evaluated for cell viability and gene editing.
Genomic DNA was isolated by incubating cells with 50 ul DNA Quickextract solution (Epicentre) per well of 96 well plate for 30 min at 37° C. Cellular extract was mixed and transferred into a PCR plate and then incubated for 6 min at 65° C. and 2 min at 98° C. PCR reactions were carried out with 1 ul of Genomic DNA containing solution by using AccuPrime™ Pfx DNA Polymerase (Thermofisher, 12344024). PCR conditions were 4 min at 94° C. (1×), followed by 15 s at 94° C., 15 s at 60° C. and 1 min at […]. The PCR products were purified and then Sanger sequenced by GENEWIZ. The following primer pairs spanning the target site were used for PCR (FW, forward; RV, reverse). Primers used by Sanger Sequencing are indicated by an asterisk (*): […]
Each sequence chromatogram was analyzed using TIDE (Tracking of Indels by Decomposition) software (http://tide.nki.nl) (See also Brinkman et al., Nucleic Acids Research, Volume 42, Issue 22, 16 Dec. 2014, Pages e168). Mock-electroporated samples were used as the reference sequence, and parameters were set to an indel size of 30 nt, and the decomposition window was set to cover the largest possible window with high-quality traces. Total indel (insertion and deletions) rates were obtained directly from TIDE plots. HDR rates were the percentage of events with an insertion of 10 Nucleotides. NHEJ Rates were calculated as Total Indel rate−HDR rate. GraphPad Prism 7 software was used to make Graphs and to calculate the all Statistical information.
(§2) mPB CD34^+ cells were electroporated with RNP (spCAS9 protein+NAV1.7 sgRNA) and NAV1.7 Non-PAM ssODN. Cells were then incubated with various concentrations of Compounds 661, 663 and 666. Experiments were done as described in the methods above, except lower concentrations of sgRNA (5 μg) and ssODN (0.2 μM) were used. Gene editing rates were determined by using TIDE assay 48 h after electroporation. Gene editing rates were expressed in percentages and classified as HDR and NHEJ.

[2] = target: DNA-PK (Homo sapiens, UniProt P78527); assay: DNA-PK inhibition assay (standard radiometric 33P-ATP kinase assay); assay type: biochemical; settings: 100 μM ATP, approx. 6 nM DNA-PK
Experimental: Compounds were screened for their ability to inhibit DNA-PK kinase using a standard radiometric assay. Briefly, in this kinase assay the transfer of the terminal ^33P-phosphate in ^33P-ATP to a peptide substrate is interrogated. The assay was carried out in 384-well plates to a final volume of 50 μL per well containing approximately 6 nM DNA-PK, 50 mM HEPES (pH 7.5), 10 mM MgCl2, 25 mM NaCl, 0.01% BSA, 1 mM DTT, 10 μg/mL sheared double-stranded DNA (obtained from Sigma), 0.8 mg/mL DNA-PK peptide (Glu-Pro-Pro-Leu-Ser-Gln-Glu-Ala-Phe-Ala-Asp-Leu-Trp-Lys-Lys-Lys, obtained from American Peptide), and 100 μM ATP.
Accordingly, compounds of the invention were dissolved in DMSO to make 10 mM initial stock solutions. Serial dilutions in DMSO were then made to obtain the final solutions for the assay. A 0.75 μL aliquot of DMSO or inhibitor in DMSO was added to each well, followed by the addition of ATP substrate solution containing ^33P-ATP (obtained from Perkin Elmer). The reaction was started by the addition of DNA-PK, peptide and ds-DNA. After 45 min, the reaction was quenched with 25 μL of 5% phosphoric acid. The reaction mixture was transferred to MultiScreen HTS 384-well PH plates (obtained from Millipore), allowed to bind for one hour, and washed three times with 1% phosphoric acid. Following the addition of 50 μL of Ultima Gold™ high efficiency scintillant (obtained from Perkin Elmer), the samples were counted in a Packard TopCount NXT Microplate Scintillation and Luminescence Counter (Packard BioScience). The Ki values were calculated using Microsoft Excel Solver macros to fit the data to the kinetic model for competitive tight-binding inhibition.

[3] = test system: CD34+ cells; assay: HDR gene editing rates in CD34+ cells, spCAS9 mRNA, AAVS1 (Example 20); assay type: cell-based, human; settings: AAVS1 sgRNA, AAVS1 Non-PAM ssODN, 72 hs, FIGS. 8-10
Experimental: To investigate the effect of DNA-PK inhibitors on HDR gene editing rates, CD34^+ cells were electroporated with spCAS9 mRNA, AAVS1 sgRNA and AAVS1 Non-PAM ssODN and then incubated with different concentrations of Compounds 666, 661, 663 or left untreated (Control). Gene editing rates were determined by using TIDE assay 72 hs after electroporation. Gene editing rates were expressed in percentages and classified as HDR and NHEJ. Cell survival rates are shown in percentages where control cells were set as 100%.

[4] = test system: mPB CD34+ cells; assay: CD34+ cell viability (Cell Titer Glo), Example 19; assay type: cell-based, human; settings: untreated control = 100
Experimental: as §1
CD34^+ HSPCs cell survival was measured using Cell Titer Glo (CTG) reagent (Promega). 100 μl of cell suspension was mixed with 100 μl complete CTG reagent. The chemiluminescent signal was measure using a luminometer and % of viable cells was calculated as compared to control cells (cells not treated with the DNA-PK inhibitors).
as §2

CNC(=O)c1ccnc(N[C@H]2CC[C@@H](Oc3cc(N4CCOCC4)cc4nccnc34)CC2)n1 [Compound 661]
% NHEJ ([1]; Donor A, 0.37 μM): 66.2% | % HDR ([1]; Donor A, 0.37 μM): 21.8% | % Indels ([1]; Donor A, 1.11 μM): 59.4% | % NHEJ ([1]; Donor A, 1.11 μM): 59.4% | % WT ([1]; Donor A, 1.11 μM): 4.2% | % HDR ([1]; Donor A, 1.11 μM): 31.7% | % Indels ([1]; Donor A, 3.33 μM): 57.8% | % WT ([1]; Donor A, 3.33 μM): 5.1% | % HDR ([1]; Donor A, 3.33 μM): 32.2% | % NHEJ ([1]; Donor A, 10 μM): 47% | % Indels ([1]; Donor A, 10.00 μM): 47% | % WT ([1]; Donor A, 10.00 μM): 18.9% | % HDR ([1]; Donor A, 10 μM): 28% | % NHEJ ([1]; Donor D, 0.37 μM): 78.1% | % HDR ([1]; Donor D, 0.37 μM): 6.9% | % Indels ([1]; Donor D, 1.11 μM): 77.5% | % NHEJ ([1]; Donor D, 1.11 μM): 77.5% | % WT ([1]; Donor D, 1.11 μM): 6% | % HDR ([1]; Donor D, 1.11 μM): 10.8% | % Indels ([1]; Donor D, 3.33 μM): 76.7% | % WT ([1]; Donor D, 3.33 μM): 6.4% | % HDR ([1]; Donor D, 3.33 μM): 11.5% | % NHEJ ([1]; Donor D, 10 μM): 64.2% | % Indels ([1]; Donor D, 10.00 μM): 64.2% | % WT ([1]; Donor D, 10.00 μM): 11.1% | % HDR ([1]; Donor D, 10 μM): 13.4% | Ki [2]: 1 nM | HDR rates [3]: improve HDR rates | Viability ([4]; Donor A, 1.11 μM): 60 | Viability ([4]; Donor A, 3.33 μM): 47 | Viability ([4]; Donor A, 10.00 μM): 6 | Viability ([4]; Donor D, 1.11 μM): 62 | Viability ([4]; Donor D, 3.33 μM): 75 | Viability ([4]; Donor D, 10.00 μM): 11

CNC(=O)c1ccnc(N[C@H]2CC[C@@H](Oc3cc(N4CCOCC4)cc4nonc34)CC2)n1 [Compound 666, N-methyl-2-((4-((6-morpholinobenzo[c][1,2,5]oxadiazol-4-yl)oxy)cyclohexyl)amino)pyrimidine-4-carboxamide]
% NHEJ ([1]; Donor A, 0.37 μM): 67.3% | % HDR ([1]; Donor A, 0.37 μM): 23.2% | % Indels ([1]; Donor A, 1.11 μM): 58.8% | % NHEJ ([1]; Donor A, 1.11 μM): 58.8% | % WT ([1]; Donor A, 1.11 μM): 3.5% | % HDR ([1]; Donor A, 1.11 μM): 31.5% | % Indels ([1]; Donor A, 3.33 μM): 56.5% | % WT ([1]; Donor A, 3.33 μM): 5.8% | % HDR ([1]; Donor A, 3.33 μM): 32.4% | % NHEJ ([1]; Donor A, 10 μM): 52% | % Indels ([1]; Donor A, 10.00 μM): 52% | % WT ([1]; Donor A, 10.00 μM): 9.7% | % HDR ([1]; Donor A, 10 μM): 33.6% | % NHEJ ([1]; Donor D, 0.37 μM): 79.2% | % HDR ([1]; Donor D, 0.37 μM): 5.5% | % Indels ([1]; Donor D, 1.11 μM): 77.5% | % NHEJ ([1]; Donor D, 1.11 μM): 77.5% | % WT ([1]; Donor D, 1.11 μM): 6.2% | % HDR ([1]; Donor D, 1.11 μM): 11% | % Indels ([1]; Donor D, 3.33 μM): 73.8% | % WT ([1]; Donor D, 3.33 μM): 5.3% | % HDR ([1]; Donor D, 3.33 μM): 14.3% | % NHEJ ([1]; Donor D, 10 μM): 69% | % Indels ([1]; Donor D, 10.00 μM): 69% | % WT ([1]; Donor D, 10.00 μM): 11.8% | % HDR ([1]; Donor D, 10 μM): 13.7% | Ki [2]: 1 nM and < 100 nM | HDR rates [3]: improve HDR rates | Viability ([4]; Donor A, 1.11 μM): 65 | Viability ([4]; Donor A, 3.33 μM): 42 | Viability ([4]; Donor A, 10.00 μM): 36 | Viability ([4]; Donor D, 1.11 μM): 76 | Viability ([4]; Donor D, 3.33 μM): 69 | Viability ([4]; Donor D, 10.00 μM): 34
